Patent US20070258972A1, “Combination of a Histone Deacetylase Inhibitor with a Death Receptor Ligand” (priority 2003, published 2007)

Experiments:
Assay type in all cases: cell-based, human
Jurkat and SKW 6.4 cells = experiment: Apoptosis assessment by annexin-V staining, Jurkat and SKW 6.4 cells; conditions: 10-200 nM, 24 hours; more in Jurkat than in SKW 6.4 cells
Protocol: (§1) After drug treatments, cells are resuspended in 100 μL of the staining solution containing annexin-V fluorescein and propidium iodide in a HEPES buffer (Annexin-V-FLUOS Staining Kit, Boehringer-Mannheim, and Indianapolis, Ind.). Following incubation at room temperature for 15 minutes, annexin V positive cells are estimated by flow cytometry, as previously described.

Primary AML cells = experiment: Apoptosis of primary AML cells by annexin V staining and flow cytometry; conditions: for % of Apoptosis: LAQ824 100 nM and/or Apo-2L/TRAIL 100 ng/mL, 24 hours
Description: Jurkat T cell leukemia and SKW6.4 B lymphoblast cells are obtained from American Tissue Culture Collection (Manassas, Va.). HL-60/Bcl-2 cells with ectopic over-expression of Bcl-2 and the control HL-60/Neo cells are created and maintained in culture as previously described. Primary leukemia blasts from six patients with AML in relapse are harvested, as previously described, from the peripheral blood or bone marrow after informed consent, as a part of a protocol study sanctioned by the local Institutional Review Board. The purity of leukemia blasts in the samples prior to culture in LAQ824 and/or Apo-2L/TRAIL was at least 80% or more, as determined by morphologic evaluation after Wright staining.
as §1

p21WAF1 promoter DNA = experiment: ChIP assay, p21WAF1 promoter; conditions: Jurkat and SKW 6.4 cells
Protocol: ChIP analysis was performed by a slight modification of a previously described method. Cells are incubated overnight at a density of 0.25×10^8 cells/ ml at 37° C. with 5% CO2. Next day, cells are cultured with 0, 50, 100 or 250 nM of LAQ 824 for 24 hours. Formaldehyde was then added to the cells to a final concentration of 1%, and the cells are gently shaken at room temperature for 10 minutes. Following this, the cells are pelleted, suspended in 1 mL of ice-cold PBS containing protease inhibitors (Complete, Boehringer Mannheim). Cells are again pelleted, re-suspended in 0.5 mL of SDS lysis buffer (1% SDS/1.0 mM EDTA/50 mM Tris.HCl, pH 8.1) and incubated on ice for 20 minutes. Lysates are sonicated with 15-second bursts. Debris was removed from samples by centrifugation for 20 minutes at 15,000×g at 4° C. An aliquot of the chromatin preparation (100 μL) was set aside and designated as Input Fraction. […] Immunoprecipitated DNA (both immunoprecipitation samples and Input) was recovered by phenol/chloroform extraction and ethanol precipitation and analyzed by PCR. […] The optimal reaction conditions for PCR are determined for each primer pair. […] The ratio between the immunoprecipitated DNA and Input DNA was calculated for each treatment and primer set. The fold increases after treatment with LAQ824 was calculated from the indicated ratio.

Structure (SMILES): O=C(/C=C/c1ccc(CN(CCO)CCc2c[nH]c3ccccc23)cc1)NO [LAQ824, N-hydroxy-3-[4-[[(2-hydroxyethyl)[2-(1H-indol-3-yl)ethyl]-amino]methyl]phenyl]-2E-2-propenamide]
- apoptosis, positive staining for annexin V (Jurkat and SKW 6.4 cells): induces apoptosis in a dose-dependent manner
- % of Apoptosis (Primary AML cells; Patient 1 primary AML cells, control 7.0): 14.5%
- % of Apoptosis (Primary AML cells; Patient 2 primary AML cells, control 12.0): 29.5%
- % of Apoptosis (Primary AML cells; Patient 3 primary AML cells, control 8.0): 22.9%
- % of Apoptosis (Primary AML cells; Patient 4 primary AML cells, control 10.0): 27.9%
- % of Apoptosis (Primary AML cells; Patient 5 primary AML cells, control 6.0): 57.8%
- % of Apoptosis (Primary AML cells; Patient 6 primary AML cells, control 7.0): 7.9%
- apoptosis of primary AML blasts (in words) (Primary AML cells; six samples, relapsed AML, Apo-2L/TRAIL 100 ng/mL, LAQ824 100 nM): induces more apoptosis
- association of p21WAF1 promoter DNA with acetylated histones (p21WAF1 promoter DNA): increased
